Test results reported in patent publication US11510993B2, “Antibody drug conjugate for anti-inflammatory applications” (Merck Sharp & Dohme Corp., priority 2015, dated 2022).
Read-outs that look alike come from different tables or passages of the source. One block for each molecule: values may come before it.

How the values were obtained:
[1] = tested on: GILZ mRNA in SUDHL-6 cells (CD74 positive B lymphoma); assay: GILZ mRNA induction in SUDHL-6 cells (RT-PCR); assay type: cell-based, human; conditions: 18 hours; for Emax: GILZ mRNA relative fold of change; for EC50: Homo sapiens, SU-DHL-6, GILZ mRNA, free drug
Method: (§1) In vitro activity and targeted delivery of ADC 12-4, 12-5, 12-6, 12-7, 12-9, 12-10, the isotype-matched negative controls 12-11, 12-12, and naked anti-hCD74 (LL1) control were assessed in HUT-78 an SUDHL-6 cells (CD74 positive T and B lymphoma cell lines respectively) as well as 786-O cells (a CD74 negative renal carcinoma cell line). The cells were treated with individual ADC, anti-hCD74 antibody, or budesonide (Bud) for 18 hours and then glucocorticoid-induced leucine zipper (GILZ) mRNA, a glucocorticoid-regulated gene, was measured by RT-PCR. […] (The activity at the highest concentration in 786-O cells may be due to impurity of the sample or possible low CD74 expression in cells.). The overall activity profile of the ADC is consistent with targeted delivery of a payload (e.g. dexamethasone or budesonide) that is dependent on the binding and internalization of the antibody with its antigen on the cell surface, and on the efficiency of linker cleavage inside the cells.
(§2) The quantitation of Glucocorticoid-induced leucine zipper (GILZ) mRNA expression was determined by real time-PCR. In brief, actively growing cells were harvested and then resuspended in the assay buffer (HBSS plus 2% FBS) at concentration of 1.1×10^6/ml. 5×10^4 cells/well in 45 μl volume were plated to Greiner 384 well v-bottom reagent plates (Ref #781280). […] After 18 hour incubation, the cells were lysed, and the lysates were used for cDNA synthesis and real-time PCR, according to manufacturer's instructions in TaqMan Gene Expression Cells-to-CT™ Kit (Invitrogen, Carlsbad, Calif.). Specific primers against human GILZ and GAPDH were purchased from the Life Technologies (Invitrogen, Carlsbad, Calif.). Real-time PCR reactions were performed on the Applied Biosystems 7900 HT Fast Real-Time PCR System. Thermal cycling conditions consisted of an initial UDG incubation hold (50° C., 2 min) denaturing and enzyme activation step (95° C., 2 min) followed by 40 cycles of denaturing (95° C., 15 s), annealing and extending (60° C., 1 min). The mRNA levels were normalized to GAPDH (internal control) using the formula Δ threshold cycle (CT)=CT target−CT reference. The differential expression signal were expressed as delta Ct (ΔCt) by subtracting the Ct values of the un-stimulated samples (containing only assay buffer or DMSO vehicle) from those of the stimulated samples and expressed as relative fold of change using the formula: 2^ΔΔCT. The graphs were generated in GraphPad Prism and the EC50 values were calculated with non-linear regression curve fit of the data in GraphPad Prism.

[2] = tested on: GILZ mRNA in HUT-78 cells (CD74 positive T lymphoma); assay: GILZ mRNA induction in HUT-78 cells (RT-PCR); assay type: cell-based, human; conditions: 18 hours; for Emax: GILZ mRNA relative fold of change; for EC50: Homo sapiens, HuT78, GILZ mRNA, free drug
Method: as §1, §2

[3] = tested on: GILZ mRNA in 786-O cells (CD74 negative renal carcinoma); assay: GILZ mRNA induction in 786-O cells (RT-PCR); assay type: cell-based, human; conditions: 786-0 cells (CD74(—)), 18 hours; for Emax: GILZ mRNA relative fold of change; for EC50: Homo sapiens, GILZ mRNA, free drug
Method: as §1, §2

[4] = In vitro stability of drug-linkers in human whole blood (parent and released dexamethasone, LC-MS/MS); conditions: for Calculated Conc. for dexamethasone in human whole blood: released dexamethasone
[5] = Solubility of drug-linkers in 20% MeCN/H2O; assay type: physicochemical; conditions: tested at a concentration of 10 mg/mL
Method: The solubility of exemplary drug-linker conjugates in aqueous solutions was evaluated. Linkers utilized in drug conjugates may have aqueous solubility to enable conjugation in aqueous media amenable to protein solubilization. Furthermore, linkers with aqueous solubility are considered hydrophilic, and may confer to the drug conjugate a reduced propensity to aggregate relative to standard hydrophobic linkers in the literature. The following exemplary drug-linkers were tested in an aqueous solution comprising 20% acetonitrile (MeCN/H2O) for solubility at a concentration of 10 mg/mL.

[6] = In vitro stability of drug-linkers in rat liver lysosomal lysate (parent and released dexamethasone, LC-MS/MS); conditions: for Calculated Conc. for dexamethasone rat lysomeal lysate: released dexamethasone
[7] = not given; remark: listed apart in the source
[8] = Matrix spiking (time 0 sample, blood pretreated with stopping reagent)
[9] = Matrix spiking (lysosomes pretreated with stopping reagent)

Molecule: CD74 Ab: anti-CD74 antibody LL1, HC SEQ ID NO:69, LC SEQ ID NO:73, pAzF at position 121
Emax [1]: 1.02 | Emax [2]: 1.34 | Emax [3]: 1.02

Molecule: C[C@@H]1C[C@H]2[C@@H]3CCC4=CC(=O)C=C[C@]4(C)[C@@]3(F)[C@@H](O)C[C@]2(C)[C@@]1(O)C(=O)COP(=O)(O)OP(=O)(O)OCCNC(=O)COC1C#CCCCCC1 (stereo partly drawn) [Drug Linker 1-4, 2-(2-(cyclooct-2-yn-1-yloxy)acetamido)ethyl(2-((8 S,9R,10S,11S,13 S,14 S,16R,17R)-9-fluoro-11,17-dihydroxy-10,13,16-trimethyl-3-oxo-6,7,8,9,10,11,12,13,14,15,16,17-dodecahydro-3H-cyclopenta[a]phenanthren-17-yl)-2-oxoethyl) dihydrogen pyrophosphate]
Calculated Conc. for each compound in human whole blood ([4]; 0 m, 37° C.): 1617 nM | Calculated Conc. for each compound in human whole blood ([4]; 1 hr, 37° C.): 1421 nM | Calculated Conc. for each compound in human whole blood ([4]; 6 hr, 37° C.): 1400 nM | Calculated Conc. for each compound in human whole blood [4, 8]: 3059 nM | Calculated Conc. for dexamethasone in human whole blood ([4]; 0 m): 0 nM | Calculated Conc. for dexamethasone in human whole blood ([4]; 1 hr): 0 nM | Calculated Conc. for dexamethasone in human whole blood ([4]; 6 hr): 0 nM | Calculated Conc. for dexamethasone in human whole blood ([4]; Matrix Spiking): 2 nM | Measured Solubility in 20% MeCN/H2O [5]: >10000 µg/mL | Calculated Conc. for each compound in rat lysomal lysate ([6]; 0 m, 37° C.): 1148.2 nM | Calculated Conc. for each compound in rat lysomal lysate ([6]; 5 m, 37° C.): 158.2 nM | Calculated Conc. for each compound in rat lysomal lysate ([6]; 10 m, 37° C.): 19.0 nM | Calculated Conc. for each compound in rat lysomal lysate ([6]; 15 m, 37° C.): 3.7 nM | Calculated Conc. for each compound in rat lysomal lysate [6, 9]: 2487.3 nM | Calculated Conc. for dexamethasone rat lysomeal lysate ([6]; 0 m): 4.7 nM | Calculated Conc. for dexamethasone rat lysomeal lysate ([6]; 5 m): 320.7 nM | Calculated Conc. for dexamethasone rat lysomeal lysate ([6]; 10 m): 559.4 nM | Calculated Conc. for dexamethasone rat lysomeal lysate ([6]; 15 m): 831.7 nM | Calculated Conc. for dexamethasone rat lysomeal lysate ([6]; 30 m): 1059.6 nM | Calculated Conc. for dexamethasone rat lysomeal lysate ([6]; 1 hr): 1148.8 nM | Calculated Conc. for dexamethasone rat lysomeal lysate ([6]; 2 hr): 854.5 nM | Calculated Conc. for dexamethasone rat lysomeal lysate ([6]; 3 hr): 841.9 nM | Calculated Conc. for dexamethasone rat lysomeal lysate ([6]; 6 hr): 826.6 nM

Molecule: C[C@@H]1C[C@H]2[C@@H]3CCC4=CC(=O)C=C[C@]4(C)[C@@]3(F)[C@@H](O)C[C@]2(C)[C@@]1(O)C(=O)COP(=O)(O)OCCNC(=O)COC1C#CCCCCC1 (stereo partly drawn) [Drug Linker 4-3, 2-(2-(cyclooct-2-yn-1-yloxy)acetamido)ethyl (2-((8S,9R,10S,11S,13S,14S,16R,17R)-9-fluoro-11,17-dihydroxy-10,13,16-trimethyl-3-oxo-6,7,8,9,10,11,12,13,14,15,16,17-dodecahydro-3H-cyclopenta[a]phenanthren-17-yl)-2-oxoethyl) hydrogen phosphate]
Calculated Conc. for each compound in human whole blood (0 min): 1539 nM | Calculated Conc. for dexamethasone in human whole blood (20 min): 0 nM | Calculated Conc. for each compound in human whole blood (20 min): 1861 nM | Calculated Conc. for dexamethasone in human whole blood (1 h): 0 nM | Calculated Conc. for each compound in human whole blood (1 h): 1619 nM | Calculated Conc. for dexamethasone in human whole blood (3 h): 1 nM | Calculated Conc. for each compound in human whole blood (3 h): 1677 nM | Calculated Conc. for dexamethasone in human whole blood (6 h): 3 nM | Calculated Conc. for each compound in human whole blood (6 h): 2040 nM | Calculated Conc. for dexamethasone rat lysomeal lysate ([7]; 0 min): 0.9 nM | Calculated Conc. for each compound in rat lysomal lysate ([7]; 0 min): 888.8 nM | Calculated Conc. for dexamethasone rat lysomeal lysate ([7]; 5 min): 14.5 nM | Calculated Conc. for each compound in rat lysomal lysate ([7]; 5 min): 1156.1 nM | Calculated Conc. for dexamethasone rat lysomeal lysate ([7]; 10 min): 14.2 nM | Calculated Conc. for each compound in rat lysomal lysate ([7]; 10 min): 983.4 nM | Calculated Conc. for dexamethasone rat lysomeal lysate ([7]; 15 min): 22.3 nM | Calculated Conc. for each compound in rat lysomal lysate ([7]; 15 min): 1032.6 nM | Calculated Conc. for dexamethasone rat lysomeal lysate ([7]; 30 min): 28.9 nM | Calculated Conc. for each compound in rat lysomal lysate ([7]; 30 min): 980.1 nM | Calculated Conc. for dexamethasone rat lysomeal lysate ([7]; 1 h): 41.6 nM | Calculated Conc. for each compound in rat lysomal lysate ([7]; 1 h): 882.4 nM | Calculated Conc. for dexamethasone rat lysomeal lysate ([7]; 2 h): 72.5 nM | Calculated Conc. for each compound in rat lysomal lysate ([7]; 2 h): 880.1 nM | Calculated Conc. for dexamethasone rat lysomeal lysate ([7]; 3 h): 90.2 nM | Calculated Conc. for each compound in rat lysomal lysate ([7]; 3 h): 903.8 nM | Calculated Conc. for dexamethasone rat lysomeal lysate ([7]; 6 h): 141.9 nM | Calculated Conc. for each compound in rat lysomal lysate ([7]; 6 h): 858.9 nM | rate of dexamethasone release in rat lysosomal extract (in words) ([6]; compared with 3-4, 5-3 releasing faster than 4-3): more slowly released

Now from value to molecule, other results behind:

EC50 [1]: 520 pM | EC50 [2]: 450 pM | EC50 [3]: 460 pM
Molecule: CCC(=O)O[C@]1(C(=O)SCF)[C@H](C)C[C@H]2[C@@H]3C[C@H](F)C4=CC(=O)C=C[C@]4(C)[C@@]3(F)[C@@H](O)C[C@@]21C [Fluticasone Propionate, fluticasone propionate]
Emax [1]: 15.78 | Emax [2]: 10.27 | Emax [3]: 25.38

EC50 [1]: 2210 pM | EC50 [2]: 650 pM | EC50 [3]: 580 pM
Molecule: CCCC1O[C@@H]2C[C@H]3[C@@H]4CCC5=CC(=O)C=C[C@]5(C)[C@H]4[C@@H](O)C[C@]3(C)[C@]2(C(=O)CO)O1 (stereo partly shown) [Budesonide, budesonide]
Emax [1]: 14.33 | Emax [2]: 9.03 | Emax [3]: 25.68

Calculated Conc. for each compound in human whole blood ([4]; 0 m, 37° C.): 1687 nM | Calculated Conc. for each compound in human whole blood ([4]; 20 m, 37° C.): 2409 nM | Calculated Conc. for each compound in human whole blood ([4]; 1 hr, 37° C.): 2224 nM | Calculated Conc. for each compound in human whole blood ([4]; 3 hr, 37° C.): 1502 nM | Calculated Conc. for each compound in human whole blood ([4]; 6 hr, 37° C.): 2792 nM | Calculated Conc. for each compound in human whole blood [4, 8]: 2939 nM | Calculated Conc. for each compound in rat lysomal lysate ([6]; 0 m, 37° C.): 1456.4 nM | Calculated Conc. for each compound in rat lysomal lysate ([6]; 5 m, 37° C.): 1851.2 nM | Calculated Conc. for each compound in rat lysomal lysate ([6]; 10 m, 37° C.): 1640.8 nM | Calculated Conc. for each compound in rat lysomal lysate ([6]; 15 m, 37° C.): 1666.7 nM | Calculated Conc. for each compound in rat lysomal lysate ([6]; 30 m, 37° C.): 1602.6 nM | Calculated Conc. for each compound in rat lysomal lysate ([6]; 1 hr, 37° C.): 1576.8 nM | Calculated Conc. for each compound in rat lysomal lysate ([6]; 2 hr, 37° C.): 1681.0 nM | Calculated Conc. for each compound in rat lysomal lysate ([6]; 3 hr, 37° C.): 1689.7 nM | Calculated Conc. for each compound in rat lysomal lysate ([6]; 6 hr, 37° C.): 1689.8 nM | Calculated Conc. for each compound in rat lysomal lysate [6, 9]: 2059.0 nM
Molecule: C[C@@H]1C[C@H]2[C@@H]3CCC4=CC(=O)C=C[C@]4(C)[C@@]3(F)[C@@H](O)C[C@]2(C)[C@@]1(O)C(=O)CO [Dexamethasone, dexamethasone, reference compound]
